From patent US7732596B2, “Fused heterocycle derivative, medicinal composition containing the same, and medicinal use thereof” (Kissei Pharmaceutical Co., Ltd., priority 2004, dated 2010) come the findings set out here.

The target of experiment [1] is T1, human SGLT2 (Homo sapiens, UniProt P31639).
T1 construct: expressed in transfected cells
T1 sequence (P31639 1-672): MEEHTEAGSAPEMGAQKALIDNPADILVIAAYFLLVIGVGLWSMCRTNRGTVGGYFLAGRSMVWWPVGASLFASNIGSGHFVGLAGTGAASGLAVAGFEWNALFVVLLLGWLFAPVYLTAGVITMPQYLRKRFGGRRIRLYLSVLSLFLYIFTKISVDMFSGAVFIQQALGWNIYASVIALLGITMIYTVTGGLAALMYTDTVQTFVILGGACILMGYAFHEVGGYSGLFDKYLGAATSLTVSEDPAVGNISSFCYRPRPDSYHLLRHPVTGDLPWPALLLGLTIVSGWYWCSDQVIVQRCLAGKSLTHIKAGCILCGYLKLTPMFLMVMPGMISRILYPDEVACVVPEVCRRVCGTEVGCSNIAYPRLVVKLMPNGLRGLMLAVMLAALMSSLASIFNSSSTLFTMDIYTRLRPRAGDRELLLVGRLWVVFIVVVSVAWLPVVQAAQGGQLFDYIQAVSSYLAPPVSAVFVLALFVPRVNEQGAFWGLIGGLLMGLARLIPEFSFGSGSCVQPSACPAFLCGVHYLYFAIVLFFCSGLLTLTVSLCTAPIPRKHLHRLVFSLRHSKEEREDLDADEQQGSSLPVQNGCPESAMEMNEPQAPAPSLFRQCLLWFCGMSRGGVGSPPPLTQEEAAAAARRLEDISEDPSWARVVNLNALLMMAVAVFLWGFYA
As to the kind of experiment: Assay for inhibitory effects on human SGLT2 activity (uptake of methyl-α-D-glucopyranoside in CS2-5E cells). In kind it is cell-based. The note with it: CHO-K1 cells stably expressing human SGLT2 (CS2-5E), 1 mM 14C-α-MG uptake, 37° C., 1 hour. The method, then: Assay for Inhibitory Effects on Human SGLT2 Activity 1) Cloning and Construction of the Vector Expressing Human SGLT2 The cDNA library was prepared for PCR amplification by reverse transcription from total RNA deprived from human kidney (Ori gene) using oligo-dT as a primer. Using this cDNA library as a template, the DNA fragment coding 2 to 2039 bp of human SGLT2 (ACCESSION: M95549, M95299), which was reported by R. G. Wells et al., was amplified by PCR method and inserted into the multi-cloning site of pcDNA3.1 (−) (Invitrogen). The DNA sequence inserted was perfectly matched to the previously reported sequence. 2) Establishment of Cell Line Stably Expressing Human SGLT2 The expression vector of human SGLT2 was digested by Sca I into a linear DNA. The linear DNA was transfected into CHO-K1 cells by means of lipofection (Effectene Transfection Reagent: QIAGEN). Neomycin resistant cell lines were selected by culture in the medium containing G418 (1 mg/mL, LIFE TECHNOLOGIES), and then the activity against the uptake of methyl-α-D-glucopyranoside was measured by the method described below. […] CS2-5E cells were cultured in the presence of G418 at 200 μg/mL. 3) Measurement of the Inhibitory Activity Against the Uptake of Methyl-α-D-glucopyranoside (α-MG) CS2-5E cells were seeded into a 96-well culture plate at a density of 3×10^4 cells/well and cultured for 2 days, and were used in the uptake assay. A mixture of non-labeled (Sigma) and ^14C-labeled α-MG (Amersham Pharmacia Biotech) was added to the uptake buffer (pH 7.4; containing 140 mM sodium chloride, 2 mM potassium chloride, 1 mM calcium chloride, 1 mM magnesium chloride, […] and 5 mM tris(hydroxymethyl)aminomethane) at the final concentration of 1 mM. […] Radioactivity was measured by means of micro-scintillation counter TopCount (Packard). One hundred % was set to the difference between the uptake in the control group and the basal uptake, and the uptake of methyl α-D-glucopyranoside at each drug concentration were calculated. […]

Experiment [2] addresses T2, human SGLT1 (Homo sapiens, UniProt P13866).
T2 construct: expressed in transfected cells
T2 sequence (P13866 1-664): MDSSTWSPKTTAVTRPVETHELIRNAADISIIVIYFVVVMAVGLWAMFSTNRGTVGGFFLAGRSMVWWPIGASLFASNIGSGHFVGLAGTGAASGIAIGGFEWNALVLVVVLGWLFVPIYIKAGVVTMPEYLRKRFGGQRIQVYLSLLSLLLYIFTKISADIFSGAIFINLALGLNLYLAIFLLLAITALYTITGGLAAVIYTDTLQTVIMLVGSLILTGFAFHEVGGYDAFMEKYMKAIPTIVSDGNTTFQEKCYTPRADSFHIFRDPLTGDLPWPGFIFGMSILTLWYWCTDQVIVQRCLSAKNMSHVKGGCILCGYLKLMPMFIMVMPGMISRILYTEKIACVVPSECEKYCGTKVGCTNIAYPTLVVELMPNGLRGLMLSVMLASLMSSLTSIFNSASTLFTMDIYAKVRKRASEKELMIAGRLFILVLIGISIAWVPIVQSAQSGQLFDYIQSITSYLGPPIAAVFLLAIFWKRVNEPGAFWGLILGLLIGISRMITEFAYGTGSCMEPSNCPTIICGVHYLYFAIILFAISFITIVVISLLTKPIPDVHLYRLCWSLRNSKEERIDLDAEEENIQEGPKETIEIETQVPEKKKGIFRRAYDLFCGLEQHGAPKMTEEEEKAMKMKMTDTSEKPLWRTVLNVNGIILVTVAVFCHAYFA
Put plainly: Assay for inhibitory effects on human SGLT1 activity (uptake of methyl-α-D-glucopyranoside in CS1-5-11D cells). In kind it is cell-based. Conditions: CHO-K1 cells stably expressing human SGLT1 (CS1-5-11D), 1 mM 14C-α-MG uptake, 37° C., 1 hour. On the procedure: Assay for Inhibitory Effects on Human SGLT1 Activity
1) Cloning and Construction of the Vector Expressing Human SGLT1
The cDNA library was prepared for PCR amplification by reverse transcription from total RNA deprived from human small intestine (Ori gene) using oligo-dT as a primer. Using this cDNA library as a template, the DNA fragment coding 1 to 2005 bp of human SGLT1 (ACCESSION: M24847), which was reported by Hediger et al., was amplified by PCR method and inserted into the multi-cloning site of pcDNA3.1 (−) (Invitrogen). The DNA sequence inserted was perfectly matched to the previously reported sequence.
2) Establishment of Cell Line Stably Expressing Human SGLT1
The expression vector of human SGLT1 was digested by Sca I into a linear DNA. The linear DNA was transfected into CHO-K1 cells by means of lipofection (Effectene Transfection Reagent: QIAGEN). Neomycin resistant cell lines were selected by culture in the medium containing G418 (1 mg/mL, LIFE TECHNOLOGIES), and then the activity against the uptake of methyl-α-D-glucopyranoside was measured by the method described below. […] CS1-5-11D cells were cultured in the presence of G418 at 200 μg/mL. […]
CS1-5-11D cells were seeded into a 96-well culture plate at a density of 3×10^4 cells/well and cultured for 2 days, and were used in the uptake assay. […] Radioactivity was measured by means of micro-scintillation counter TopCount (Packard). […]

The term IC50 denotes the concentration at which inhibition is half-maximal. A lower IC50 goes with higher potency. Take `OC[C@H]1O[C@@H](c2cc3c(CCc4ccccc4)cccc3s2)[C@H](O)[C@@H](O)[C@@H]1O` [Example 1, 2-(β-D-Glucopyranosyl)-4-(2-phenylethyl)benzo[b]thiophene]: the IC50 in experiment [1] came to 58 nM; in experiment [2], 220 nM.

Turning to `OC[C@H]1O[C@@H](c2cc3cccc(CCc4ccccc4)c3s2)[C@H](O)[C@@H](O)[C@@H]1O` [Example 2, 2-(β-D-Glucopyranosyl)-7-(2-phenylethyl)benzo[b]thiophene], half-maximal inhibition in experiment [1] (IC50) was put at 130 nM.

With `Cc1ccc(Cc2cccc3cc([C@@H]4O[C@H](CO)[C@@H](O)[C@H](O)[C@H]4O)sc23)cc1` [Example 3, 2-(β-D-Glucopyranosyl)-7-(4-methylbenzyl)benzo[b]thiophene], in experiment [1], the IC50 is 2 nM.
